# From US4001218A, “Penicillins” (Bayer Aktiengesellschaft, priority 1972, dated 1977)
# Tests used:
# [1] = test system: E. coli 14; format: cell-based; conditions: E. coli 14; 24 hours, 37°C
# [2] = test system: E. coli A 261; assay: MIC, test tube series dilution test, E. coli A 261; format: cell-based; conditions: 24 hours, 37°C
# [3] = test system: E. coli C 165; assay: MIC, test tube series dilution test, E. coli C 165; format: cell-based; conditions: 24 hours, 37°C
# [4] = test system: E. coli 183/58; assay: MIC, test tube series dilution test, E. coli 183/58; format: cell-based; conditions: 24 hours, 37°C
# [5] = test system: Proteus morg. 932; assay: MIC, test tube series dilution test, Proteus morg. 932; format: cell-based; conditions: 24 hours, 37°C
# [6] = test system: Proteus vulg. 1017; format: cell-based, Proteus vulgaris; conditions: Proteus 1017; 24 hours, 37°C
# [7] = test system: Psdm. aerug. F 41; assay: MIC, test tube series dilution test, Psdm. aerug. F 41; format: cell-based, Pseudomonas aeruginosa; conditions: Psdm. aerug. F 41; 24 hours, 37°C
# [8] = test system: Psdm. aerug. Walter; assay: MIC, test tube series dilution test, Psdm. aerug. Walter; format: cell-based, Pseudomonas aeruginosa; conditions: Psdm. aerug. Walter; 24 hours, 37°C
# [9] = test system: Klebsiella K 10; assay: MIC, test tube series dilution test, Klebsiella K 10; format: cell-based; conditions: 24 hours, 37°C
# [10] = test system: Klebsiella 63; assay: MIC, test tube series dilution test, Klebsiella 63; format: cell-based; conditions: Klebsiella 63; 24 hours, 37°C
# [11] = test system: Staph. aureus 1756; assay: MIC, test tube series dilution test, Staph. aureus 1756; format: cell-based, Staphylococcus aureus; conditions: Staph. aureus 1756; 24 hours, 37°C
# [12] = test system: Staph. aureus 133; format: cell-based, Staphylococcus aureus; conditions: Staph. aureus 133; 24 hours, 37°C
# [13] = test system: Enterococcus 9790; assay: MIC, test tube series dilution test, Enterococcus 9790; format: cell-based; conditions: 24 hours, 37°C
SMILES,MIC [1],MIC [2],MIC [3],MIC [4],MIC [5],MIC [6],MIC [7],MIC [8],MIC [9],MIC [10],MIC [11],MIC [12],MIC [13]
"CC1(C)S[C@@H]2[C@H](NC(=O)[C@H](NC(=O)c3ccc(NC(=O)C4CC=CCC4)cc3)c3ccccc3)C(=O)N2[C@H]1C(=O)O (single isomer, unassigned) [Example 12, sodium D(-)-α-[4-(3-cyclohexene-1-carbonylamino-benzoylamino)]-benzylpenicillin]",~ 4 U/ml,> 256 U/ml,8 U/ml,16 U/ml,> 256 U/ml,16 U/ml,32 U/ml,32 U/ml,32 U/ml,32 U/ml,16 U/ml,< 1 U/ml,~ 8 U/ml
"CC1(C)S[C@@H]2[C@H](NC(=O)[C@H](N)c3ccccc3)C(=O)N2[C@H]1C(=O)O [Ampicillin, D(-)-α-aminobenzylpenicillin, reference compound]",> 1 U/ml,8 U/ml,8 U/ml,200 U/ml,256 U/ml,256 U/ml,> 256 U/ml,> 256 U/ml,128 U/ml,128 U/ml,256 U/ml,< 1 U/ml,4 U/ml
"CC1(C)S[C@@H]2[C@H](NC(=O)[C@H](NC(=O)c3ccc(NC(=O)C4CCC4)cc3)c3ccccc3)C(=O)N2[C@H]1C(=O)O [Example 5, sodium D(-)-α-(4-cyclobutanecarbonylaminobenzoylamino)-benzylpenicillin]",8 U/ml,> 256 U/ml,16 U/ml,32 U/ml,256 U/ml,32 U/ml,64 U/ml,64 U/ml,128 U/ml,64 U/ml,32 U/ml,< 1 U/ml,16 U/ml
"CC1(C)S[C@@H]2[C@H](NC(=O)[C@H](NC(=O)c3ccc(NC(=O)CC4C=CCC4)cc3)c3ccccc3)C(=O)N2[C@H]1C(=O)[O-].[Na+] (stereo partly drawn) [Example 8, sodium D(-)-α-(4-[2-cyclopentene-1-acetamido-benzoylamino])-benzylpenicillin]",,> 256 U/ml,8 U/ml,16 U/ml,128 U/ml,64 U/ml,64 U/ml,64 U/ml,64 U/ml,32 U/ml,8 U/ml,< 1 U/ml,8 U/ml
"CC1(C)S[C@@H]2[C@H](NC(=O)[C@H](NC(=O)c3ccc(NC(=O)C4=CCCCC4)cc3)c3ccccc3)C(=O)N2[C@H]1C(=O)O [Example 11, sodium D(-)-α-[4-(1-cyclohexene-1-carbonylamino-benzoylamino)]-benzylpenicillin]",4 U/ml,> 256 U/ml,8 U/ml,8 U/ml,128 U/ml,64 U/ml,32 U/ml,32 U/ml,64 U/ml,32 U/ml,128 U/ml,< 1 U/ml,16 U/ml
"CC1(C)S[C@@H]2[C@H](NC(=O)[C@H](NC(=O)c3ccc(NC(=O)C4CCC=CCC4)cc3)c3ccccc3)C(=O)N2[C@H]1C(=O)O [Example 14, sodium D(-)-α-[4-(4-cycloheptene-1-carbonylamino-benzoylamino)]-benzylpenicillin]",< 1 U/ml,> 256 U/ml,~ 8 U/ml,16 U/ml,256 U/ml,16 U/ml,32 U/ml,32 U/ml,32 U/ml,32 U/ml,32 U/ml,< 1 U/ml,8 U/ml
COc1ccc(C(=O)Nc2ccc(C(=O)N[C@@H](C(=O)N[C@@H]3C(=O)N4[C@@H]3SC(C)(C)[C@@H]4C(=O)O)c3ccccc3)cc2)cc1 [Example 16],~ 1 U/ml,> 256 U/ml,8 U/ml,8 U/ml,256 U/ml,64 U/ml,16 U/ml,16 U/ml,32 U/ml,16 U/ml,64 U/ml,< 1 U/ml,8 U/ml
CC1(C)S[C@@H]2[C@H](NC(=O)[C@H](NC(=O)c3ccc(NC(=O)c4ccc(F)cc4)cc3)c3ccccc3)C(=O)N2[C@H]1C(=O)O [Example 17],4 U/ml,> 256 U/ml,~ 8 U/ml,8 U/ml,128 U/ml,~ 32 U/ml,32 U/ml,32 U/ml,64 U/ml,32 U/ml,32 U/ml,< 1 U/ml,16 U/ml
COc1cc(OC)cc(C(=O)Nc2ccc(C(=O)N[C@@H](C(=O)N[C@@H]3C(=O)N4[C@@H]3SC(C)(C)[C@@H]4C(=O)O)c3ccccc3)cc2)c1 [Example 18],4 U/ml,> 256 U/ml,8 U/ml,8 U/ml,128 U/ml,64 U/ml,16 U/ml,16 U/ml,64 U/ml,64 U/ml,16 U/ml,< 1 U/ml,8 U/ml
CC1(C)S[C@@H]2[C@H](NC(=O)[C@H](NC(=O)c3ccc(NC(=O)c4ccccc4)cc3)c3ccccc3)C(=O)N2[C@H]1C(=O)O [Example 25],8 U/ml,> 256 U/ml,16 U/ml,8 U/ml,16 U/ml,128 U/ml,16 U/ml,32 U/ml,64 U/ml,32 U/ml,64 U/ml,< 1 U/ml,8 U/ml
CC1(C)S[C@@H]2[C@H](NC(=O)[C@H](NC(=O)c3ccc(NC(=O)c4ccc(N=[N+]=[N-])cc4)cc3)c3ccccc3)C(=O)N2[C@H]1C(=O)O [Example 26],< 1 U/ml,256 U/ml,4 U/ml,< 1 U/ml,8 U/ml,16 U/ml,16 U/ml,16 U/ml,16 U/ml,4 U/ml,64 U/ml,< 1 U/ml,16 U/ml
"CC1(C)S[C@@H]2[C@H](NC(=O)[C@H](NC(=O)c3ccc(NC(=O)c4ccc([N+](=O)[O-])cc4)cc3)c3ccccc3)C(=O)N2[C@H]1C(=O)O [Example 28, sodium D(-)-α-[4-(4-nitrobenzoylamino)-benzoylamino]-benzylpenicillin]",< 1 U/ml,> 256 U/ml,4 U/ml,4 U/ml,128 U/ml,16 U/ml,16 U/ml,16 U/ml,16 U/ml,16 U/ml,~ 32 U/ml,< 1 U/ml,4 U/ml
"CC1(C)S[C@@H]2[C@H](NC(=O)[C@H](NC(=O)c3ccc([N+](=O)[O-])cc3)c3ccccc3)C(=O)N2[C@H]1C(=O)O [Example 33, sodium D(-)-α-(4-nitro-benzoylamino)-benzylpenicillin]",~ 8 U/ml,> 256 U/ml,~ 32 U/ml,32 U/ml,256 U/ml,64 U/ml,64 U/ml,,128 U/ml,128 U/ml,32 U/ml,< 1 U/ml,4 U/ml
CC1(C)S[C@@H]2[C@H](NC(=O)[C@H](NC(=O)c3ccc(NC(=O)CN=[N+]=[N-])cc3)c3ccccc3)C(=O)N2[C@H]1C(=O)O [Example 36],8 U/ml,> 256 U/ml,~ 16 U/ml,32 U/ml,,128 U/ml,32 U/ml,~ 64 U/ml,128 U/ml,64 U/ml,64 U/ml,< 1 U/ml,8 U/ml
CC1(C)S[C@@H]2[C@H](NC(=O)[C@H](NC(=O)c3cc(NC(=O)C4CCC4)ccc3Cl)c3ccccc3)C(=O)N2[C@H]1C(=O)O [Example 52],,,128-256 U/ml,32-64 U/ml,,> 256 U/ml,128-256 U/ml,128-256 U/ml,128-256 U/ml,128-256 U/ml,32-64 U/ml,< 1 U/ml,32-64 U/ml
